# Reference: patent US20150284360A1, “AMIDE DERIVATIVES OF ANILINE-RELATED COMPOUNDS AND COMPOSITIONS THEREOF” (C&C BIOPHARMA, LLC, priority 2014, published 2015)
# Assay: Solubility of a compound in water
# Format: physicochemical
# Details: compound added until saturated
# Description: Solubility of a compound was obtained by adding the compound into water of known volume (e.g. 1 mL) until saturated, measuring the amount of the compound added, and obtaining the solubility of the compound in water (mg/mL) (Table 9).
row,Structure (SMILES),Solubility in Water
1,CC(C)[C@H](N)C(=O)Nc1ccccc1NC(=O)CCCCCC(=O)Nc1cccc(Br)c1.Cl [Val-CC30•HCl],170 mg/mL
2,"Nc1ccccc1NC(=O)CCCCCC(=O)Nc1ccccc1 [PAOA, reference compound]",.033 mg/mL
3,N[C@@H](CCC(=O)[O-])C(=O)Nc1ccccc1NC(=O)CCCCCC(=O)Nc1cccc(Br)c1.[Na+] [CC30-Glu•Na],>100 mg/mL
4,Cl.NCC(=O)Nc1ccccc1NC(=O)CCCCCC(=O)Nc1ccccc1 [Gly-PAOA•HCl],11 mg/mL
5,Cl.NCC(=O)Nc1ccccc1NC(=O)c1ccc(CNc2nccc(-c3cccnc3)n2)cc1 [Gly-MGCD0103•HCl],>100 mg/mL
6,C[C@@H](O)[C@H](N)C(=O)Nc1ccccc1NC(=O)c1ccc(CNc2nccc(-c3cccnc3)n2)cc1.Cl [Thr-MGCD0103•HCl],>100 mg/mL
7,Cl.Cl.NCCCC[C@H](N)C(=O)Nc1ccccc1NC(=O)CCCCCC(=O)Nc1ccccc1 [Lys-PAOA•2HCl],>100 mg/mL
8,C[C@@H](O)[C@H](N)C(=O)Nc1ccccc1NC(=O)CCCCCC(=O)Nc1cccc(Br)c1.Cl [Thr-CC30•HCl],1350 mg/mL
9,Cl.NC(CO)C(=O)Nc1ccccc1NC(=O)c1ccc(CNC(=O)OCc2cccnc2)cc1 (stereo not shown) [Ser-MS-275•HCl],>100 mg/mL
10,CC(C)C[C@H](N)C(=O)Nc1ccccc1NC(=O)CCCCCC(=O)Nc1cccc(Br)c1.Cl [Leu-CC30•HCl],50 mg/mL
11,Cl.NCC(=O)Nc1ccccc1NC(=O)CCCCCC(=O)Nc1cccc(Br)c1 [Gly-CC30•HCl],10 mg/mL
12,Cl.NC(=O)C[C@H](N)C(=O)Nc1ccccc1NC(=O)CCCCCC(=O)Nc1cccc(Br)c1 [Asn-CC30•HCl],30 mg/mL
13,"Nc1ccccc1NC(=O)c1ccc(CNC(=O)OCc2cccnc2)cc1 [MS-275, Entinostat, reference compound]",0.016 mg/mL
14,Cl.Cl.NCCC[C@H](N)C(=O)Nc1ccccc1NC(=O)CCCCCC(=O)Nc1cccc(Br)c1 [Orn-CC30•HCl],720 mg/mL
15,O=C([O-])CCC(=O)Nc1ccccc1NC(=O)CCCCCC(=O)Nc1cccc(Br)c1.[Na+] [CC30-Suc-ONa],2 mg/mL
16,CC(C)C(N)C(=O)Nc1ccccc1NC(=O)c1ccc(CNc2nccc(-c3cccnc3)n2)cc1.Cl (stereo not shown) [Val-MGCD0103•HCl],>100 mg/mL
17,CC(O)C(N)C(=O)Nc1ccccc1NC(=O)c1ccc(CNC(=O)OCc2cccnc2)cc1.Cl (stereo not shown) [Thr-MS-275•HCl],>100 mg/mL
18,"Nc1ccccc1NC(=O)c1ccc(CNc2nccc(-c3cccnc3)n2)cc1 [MGCD0103, Mocetinostat, reference compound]",<1 mg/mL
19,CC(C)[C@H](N)C(=O)Nc1ccccc1NC(=O)c1ccc(CNC(=O)OCc2cccnc2)cc1.Cl [Val-MS-275•HCl],>100 mg/mL
20,CC(C)[C@H](N)C(=O)Nc1ccccc1NC(=O)CCCCCC(=O)Nc1ccccc1.Cl [Val-PAOA•HCl],>100 mg/mL
21,Cl.Cl.NCCCC[C@H](N)C(=O)Nc1ccccc1NC(=O)c1ccc(CNC(=O)OCc2cccnc2)cc1 [Lys-MS-275•2HCl],>100 mg/mL
22,Cl.N[C@@H](Cc1ccccc1)C(=O)Nc1ccccc1NC(=O)CCCCCC(=O)Nc1cccc(Br)c1 [Phe-CC30•HCl],10 mg/mL
23,Cl.N[C@@H](CO)C(=O)Nc1ccccc1NC(=O)CCCCCC(=O)Nc1cccc(Br)c1 [Ser-CC30•HCl],10 mg/mL
24,Cl.Cl.NCCCCC(N)C(=O)Nc1ccccc1NC(=O)c1ccc(CNc2nccc(-c3cccnc3)n2)cc1 (stereo not shown) [Lys-MGCD0103•2HCl],>100 mg/mL
25,Cl.NC(CO)C(=O)Nc1ccccc1NC(=O)c1ccc(CNc2nccc(-c3cccnc3)n2)cc1 (stereo not shown) [Ser-MGCD0103•HCl],>100 mg/mL
26,Cl.NCC(=O)Nc1ccccc1NC(=O)c1ccc(CNC(=O)OCc2cccnc2)cc1 [Gly-MS-275•HCl],68 mg/mL
27,Cl.Cl.N=C(N)NCCC[C@H](N)C(=O)Nc1ccccc1NC(=O)CCCCCC(=O)Nc1cccc(Br)c1 [Arg-CC30•HCl],100 mg/mL
28,Cl.Cl.N[C@@H](Cc1c[nH]cn1)C(=O)Nc1ccccc1NC(=O)CCCCCC(=O)Nc1cccc(Br)c1 [His-CC30•2HCl],130 mg/mL
